Laboratory results reported in publication PMC10302231, “Enhancing Cell Penetration Efficiency of Cyclic Oligoarginines Using Rigid Scaffolds” (Pharmaceutics, 2023).
Where a SMILES comes first, the peptide text is derived from it. Bridges are numbered along the chain shown (N, C = ends). The star is where a group is joined. 5FAM = O=C1OC2(c3ccc(O)cc3Oc3cc(O)ccc32)c2ccc(C(=O)*)cc21

Legend:
[1] = tested on: EBC-1 human lung squamous cancer cells; assay: Cellular uptake (internalization) of Cf-labelled peptides by flow cytometry; type: cell-based; settings: 90 min; for internalization compared with octaarginine (in words) / efficacy (internalization) of tetra- versus hexaarginine bicyclic derivative / cellular uptake compared with linear peptide Acyl-Met-(Arg)6-Met-(Gly)4-Lys(Cf): EBC-1 cells, 1, 5, 10 µM; for internalization relative to octaarginine (Cf-Arg8): Cf-labelled peptides at 1, 5, 10 µM, trypsin treatment, flow cytometry fluorescence intensity, mean ± SD
Procedure: The internalization study of fluorophore-labeled peptides was performed on 24-well plates with 10^5 EBC-1 human lung squamous cancer cells (CRL-5889TM) per well. After 24 h incubation at 37 °C, the cells were treated with a serum-free medium as a negative control and with peptides in different concentrations (1, 5, 10 μM). After the incubation, 100 μL trypsin (0.25%) was used for 5–10 min to remove the excess peptides from the membranes and to detach the cells from the plates. By adding 800 µL of HPMI buffer (glucose, NaHCO3, NaCl, HEPES, KCl, MgCl2, CaCl2, Na2HPO4 × 2 H2O) containing 10% fetal bovine serum (FBS), the trypsin activity was stopped, and the cells were transferred to tubes for measurement. The cells were centrifuged at 216× g at 4 °C, and the supernatant was disposed of. The resuspended cells (in 250 μL HPMI) were used to measure their fluorescence intensity by flow cytometer (BDLSR II, BD Bioscience, San Jose, CA, USA). Data were analyzed with FACSDiVa 5.0 software (BD Bioscience, San Jose, CA, USA).
The internalization of peptides was measured by flow cytometry on EBC-1 cells. The carboxyfluorescein-labeled peptides were studied at 1, 5, and 10 μM concentrations. The cells were treated for 90 min at 37 °C.

[2] = tested on: EBC-1 cells; assay: Cellular uptake after pretreatment with endocytosis inhibitors, flow cytometry; type: cell-based, human; settings: peptide 5 μM 90 min 37 °C; for effect of CPZ (clathrin-mediated endocytosis inhibitor) on cellular uptake: CPZ 30 μM pretreatment 30 min
Procedure: In order to study the effect of inhibitors, the peptide conjugates were administered at 5 μM when the cells were pretreated by the inhibitors for 30 min. The cells were then kept at 37 °C for 90 min. Macropinocytosis was inhibited using 5-(N-ethyl-N-isopropyl)amiloride (EIPA), clathrin-mediated endocytosis with chlorpromazine (CPZ), colchicine (Col) to assess the role of microtubules, and methyl-β-cyclodextrin (CyD) for the inhibition of caveolae/lipid-raft-mediated endocytosis.
The CPPs can use several pathways to enter the cell. The dependence of the cellular uptake was measured for each Dabcyl-containing cyclic BBMB peptide using different inhibitors (Figure 7). The 5-(N-ethyl-N-isopropyl)amiloride (EIPA) inhibits macropinocytosis, chlorpromazine (CPZ) inhibits clathrin-mediated endocytosis, and colchicine (COL) was used to inhibit microtubule formation. Finally, methyl-beta-cyclodextrin (CyD) was used to inhibit caveolae-mediated endocytosis.
Figure 7 Effect of endocytosis inhibitors on the cellular uptake of peptides. Before the treatment with the peptide conjugates (5 μM) for 90 min, the EBC-1 cells were pretreated with inhibitors EIPA (50 μM), CPZ (30 μM), CyD (5 mM), and COL (10 mM) for 30 min. Significant difference from the control was measured using Student’s t-test (* p < 0.05). Data represent the mean ± standard deviation (SD).

[3] = Stability measurement in 25% human plasma; type: in vitro ADME; settings: 25% human plasma (sodium citrate), 37 °C, aliquots at 0, 1 and 24 h, RP-HPLC; preliminary experiment
Procedure: The analysis was carried out based on the details described in Yuchen Hu et al.. The linear (Dabcyl-Met-(Arg)6-Met-(Gly)4-Lys(Cf)) and cyclic (Dabcyl-Cys-(Arg)6-Cys-(Gly)4-Lys(Cf) para BBMB) peptides were incubated with 25% human plasma at 37 °C. An aliquot of the peptide; human plasma mixture was taken at time points 0, 1, and 24 h. The samples were analyzed by RP-HPLC.
The molecular weight of peptides and conjugates was determined with ESI-MS using Bruker Amazon SL (Germany). The samples were dissolved in water-acetonitrile solution (50:50) with 0.1% formic acid. The samples were directly injected with a syringe pump.
Parameters: capillary voltage: 4 kV, nebulizer gas: 10 psi, dry gas: 4 L/min, heated capillary temperature: 250 °C.
EBC-1 human lung squamous cancer cells (CRL-5889TM) were used for the in vitro analysis. These cells were a generous gift of Prof. […]
Analytical RP-HPLC was performed on Exformma (Exformma Technology (ASIA) Co., Ltd, Hong Kong, China) HPLC system. […] Linear gradient elution (0 min 0% B; 2 min 0% B; 22 min 90% B) was used with eluent A (0.1% TFA in water) and eluent B (0.1% TFA in acetonitrile-water (80:20, v/v)) at 1mL/min flowrate, the peaks were detected at λ= 220 nm for both analytical and preparative RP-HPLC. […]
Samples were taken in 0, 1 and 24 hour time periods and measured with analytical HPLC. […]

Dabcyl-Cys((Arg)6-Cys)-(Gly)4-Lys(Cf) (disulfide) [Dabcyl cyclic peptide with disulfide bond, Cf-labelled]
internalization compared with octaarginine (in words) ([1]; 37 °C, flow cytometry): still better
internalization relative to octaarginine (Cf-Arg8) ([1]; EBC-1 cells, 37 °C): 1.5–2 fold

Dabcyl-Cys-(Gly)4-Cys-(Arg)6-Lys(Cf) orto BBMB (sidechain bridge or staple) [Dabcyl cyclic peptide, thioether bonds to orto BBMB, hexaarginine at C-terminus]
effect of EIPA (macropinocytosis inhibitor) on cellular uptake ([2]; EIPA 50 μM pretreatment 30 min, Student's t-test p < 0.05): did not have an effect

Dabcyl-Cys-(Arg)4-Cys-(Arg)4-Cys-Lys(Cf) TBMB (bicyclic or more) [Dabcyl bicyclic octaarginine peptide on TBMB scaffold]
internalization compared with octaarginine (in words) ([1]; 37 °C, flow cytometry): better internalization
internalization relative to octaarginine (Cf-Arg8) ([1]; EBC-1 cells, 37 °C): 3 fold

Dabcyl-Cys-(Arg)6-Cys-(Gly)4-Lys(Cf) para BBMB (sidechain bridge or staple) [Dabcyl cyclic peptide, para BBMB, hexaarginine in the cycle]
stability in 25% human plasma [3]: stable
effect of CPZ (clathrin-mediated endocytosis inhibitor) on cellular uptake [2]: inhibits
toxicity in the uptake experiment ([1]; EBC-1 cells, 10 µM, 37 °C): showed toxicity
internalization relative to octaarginine (Cf-Arg8) ([1]; EBC-1 cells, 37 °C): 5 fold

Dabcyl-(Arg)6-Cys-(Gly)4-Cys-Lys(Cf) para BBMB (sidechain bridge or staple) [Dabcyl cyclic peptide, para BBMB, hexaarginine at N-terminus]
effect of CPZ (clathrin-mediated endocytosis inhibitor) on cellular uptake [2]: inhibits

Acyl-Cys-(Arg)2-Cys-(Arg)2-Cys-Lys(Cf) TBMB (bicyclic or more) [acylated bicyclic tetraarginine peptide on TBMB scaffold]
efficacy (internalization) of tetra- versus hexaarginine bicyclic derivative ([1]; flow cytometry): no difference

Dabcyl-Cys-(Arg)6-Cys-(Gly)4-Lys(Cf) orto BBMB (sidechain bridge or staple) [Dabcyl cyclic peptide, orto BBMB, hexaarginine in the cycle]
effect of CPZ (clathrin-mediated endocytosis inhibitor) on cellular uptake [2]: inhibits
internalization relative to octaarginine (Cf-Arg8) ([1]; EBC-1 cells, 37 °C): 5 fold

CC(=O)N[C@H]1CSSC[C@@H](C(=O)NCC(=O)NCC(=O)NCC(=O)NCC(=O)N[C@@H](CCCCNC(=O)c2ccc3c(c2)C(=O)OC32c3ccc(O)cc3Oc3cc(O)ccc32)C(N)=O)NC(=O)[C@H](CCCNC(=N)N)NC(=O)[C@H](CCCNC(=N)N)NC(=O)[C@H](CCCNC(=N)N)NC(=O)[C@H](CCCNC(=N)N)NC(=O)[C@H](CCCNC(=N)N)NC(=O)[C@H](CCCNC(=N)N)NC1=O [Acyl-Cys((Arg)6-Cys)-(Gly)4-Lys(Cf)] (Ac-CRRRRRRCGGGGK(5FAM)-NH2; disulfide 1-8)
efficiency of cellular uptake compared with octaarginine at 5 µM ([1]; EBC-1 cells, 5 µM, 37 °C, flow cytometry): the same
efficiency of cellular uptake compared with octaarginine at 10 µM ([1]; EBC-1 cells, 10 µM, 37 °C, flow cytometry): almost half
cellular uptake compared with linear peptide Acyl-Met-(Arg)6-Met-(Gly)4-Lys(Cf) ([1]; 37 °C, flow cytometry): better cellular uptake
cellular uptake compared with linear peptide Acyl-Met-(Arg)6-Met-(Gly)4-Lys(Cf) ([1]; 37 °C, flow cytometry, listed as Acyl-Cys-(Arg)6-Cys-(Gly)4-Lys(Cf)): did increase the internalization

Acyl-Cys-(Arg)3-Cys-(Arg)3-Cys-Lys(Cf) TBMB (bicyclic or more) [acylated bicyclic hexaarginine peptide on TBMB scaffold]
efficacy (internalization) of tetra- versus hexaarginine bicyclic derivative ([1]; flow cytometry): no difference

Dabcyl-(Arg)6-Cys-(Gly)4-Cys-Lys(Cf) orto BBMB (sidechain bridge or staple) [Dabcyl cyclic peptide, orto BBMB, hexaarginine at N-terminus]
effect of CPZ (clathrin-mediated endocytosis inhibitor) on cellular uptake [2]: inhibits
